# Reference: patent publication US6353016B1, “Potassium channel activators” (Nippon Shinyaku Co., Ltd., priority 1998, dated 2002)
# Assays:
# [1] = system: isolated rat aorta specimen; experiment: Effect on KCl-induced contraction of the isolated rat aorta specimen; type: cell-based; conditions: papaverine (100 μM) = 100% relaxation
# Procedure: Effect on KCl-induced contraction of the isolated rat aorta specimen
# In the present experiment, potassium channel activating activity was evaluated by comparing the pIC50 values representing the relaxing effects of the test drug on the 20 mM KCl-induced contraction and 100 mM KCl-contraction. According to Br. J. Pharmacol., 88, 103-111 (1986) referred to above, potassium channel activators produce greater relaxing effects on 20 mM KCl-induced contraction than on 100 mM KCl-induced contraction.
# Male 7-13-week-old SD rats (body weights 240-480 g) were used in groups of 4-6. After the animal was bled to death under ether anesthesia, the throacic aorta was isolated and dissected into a spiral specimen about 2 mm wide×about 20 mm long. Each specimen was suspended in a 10 ml Magnus bath containing Krebs-Henseleit solution (KH solution) aerated with 95% O2+5% CO2 at 37° C. A tension load of 1 g was applied and with the KH solution exchanged every 20 minutes, the specimen was equilibrated for about 90 minutes. Then, the experiment was commenced. The change in tension of the specimen was recorded on a recticorder through an isometric tension transducer. The specimen was caused to contract by replacing the KH solution in the Magnus bath with 20 mM or 100 mM KCl-containing KH solution (NaCl in KH solution was replaced with an equimolar amount of KCl) and when the contractile response had reached plateau, the test drug was cumulatively applied to evaluate the relaxing effect.
# Each result was expressed in the average of the relaxation ratio obtained in the presence of the test drug, with the maximum relaxation found with papaverine (100 μM) being taken as the 100% relaxation response of the specimen.
# [2] = system: blood pressure in anesthetized rats; experiment: Effect on blood pressure in anesthetized rats; type: in vivo, rat; conditions: 100 mg/kg intraduodenally; urethane-anesthetized female SD rats; % change at time of maximal action, up to 3 hours
# Procedure: Effect on blood pressure in anesthetized rats
# Female 10-13-week-old SD rats (body weights 180-300 g) fasted from the previous day were used in groups of 2-4. The animal was placed in supine position under urethane anesthesia and the femoral artery was cannulated for blood pressure measurement. The blood pressure was recorded on a recorder through the cannula and a pressure transducer. When the blood pressure had stabilized, the test drug was administered intraduodenally and the effect on blood pressure was monitored up to 3 hours after administration.
# Each value is expressed as the average of % changes at the time of maximal action.
# [3] = system: isolated guinea-pig trachea specimen; experiment: Effect on the KCl-induced contraction of the isolated guinea-pig trachea specimen; type: cell-based
# Procedure: Effect on the KCl-induced contraction of the isolated guinea-pig trachea specimen
# As in Experimental Example 1, potassium channel activating activity was evaluated by comparing the relaxing effects of the test drug on 20 mM KCl-induced contraction and 100 mM KCl-induced contraction.
# Male 5-13-week-old Hartley guinea pigs (body weights 400-730 g) were used in groups of 2-4. After the animal was bled to death under ether anesthesia, the trachea was isolated and 4 tracheal strips were connected to prepare a specimen in accordance with the method of Takagi et al. (Chem. Pharm. Bull., 6, 716-720 (1958)). The experiment was performed in the same manner as described in Experimental Example 1.
compound,measurement,setting,value
"Cc1c(-c2ccccc2F)[nH]c(N)c1C#N [Compound 1, 2-Amino-3-cyano-5-(2-fluorophenyl)-4-methylpyrrole]",Relaxation effect (%) 20 mM KCl-induced contraction,[1]; 10 μM,82%
same,Relaxation effect (%) 100 mM KCl-induced contraction,[1]; 10 μM,28%
"Cc1c(-c2ccccc2)[nH]c(N)c1C#N [Compound 2, 2-Amino-3-cyano-4-methyl-5-phenylpyrrole]",Relaxation effect (%) 20 mM KCl-induced contraction,[1]; 10 μM,78%
same,Relaxation effect (%) 100 mM KCl-induced contraction,[1]; 10 μM,17%
same,Hypotensive effect (%),[2],25.9%
"Cc1c(-c2cccc(Cl)c2)[nH]c(N)c1C#N [Compound 3, 2-Amino-5-(3-chlorophenyl)-3-cyano-4-methylpyrrole]",Relaxation effect (%) 20 mM KCl-induced contraction,[1]; 1 μM,45%
same,Relaxation effect (%) 100 mM KCl-induced contraction,[1]; 1 μM,6%
same,Hypotensive effect (%),[2],14.1%
"Cc1c(-c2ccco2)[nH]c(N)c1C#N [Compound 4, 2-Amino-3-cyano-5-(2-furyl)-4-methylpyrrole]",Relaxation effect (%) 20 mM KCl-induced contraction,[1]; 10 μM,64%
same,Relaxation effect (%) 100 mM KCl-induced contraction,[1]; 10 μM,12%
same,Hypotensive effect (%),[2],25.6%
"N#Cc1cc(-c2ccc3c(c2)OCO3)[nH]c1N [Compound 5, 2-Amino-3-cyano-5-(3,4-methylenedioxyphenyl)pyrrole]",Relaxation effect (%) 20 mM KCl-induced contraction,[3]; 10 μM,58%
same,Relaxation effect (%) 100 mM KCl-induced contraction,[3]; 10 μM,−7%
same,Relaxation effect (%) 20 mM KCl-induced contraction,[1]; 10 μM,73%
same,Relaxation effect (%) 100 mM KCl-induced contraction,[1]; 10 μM,18%
"N#Cc1cc(-c2ccc(F)cc2F)[nH]c1N [Compound 6, 2-Amino-3-cyano-5-(2,4-difluorophenyl)pyrrole]",Relaxation effect (%) 20 mM KCl-induced contraction,[1]; 10 μM,92%
same,Relaxation effect (%) 100 mM KCl-induced contraction,[1]; 10 μM,24%
"Cc1[nH]c(-c2cccc(Cl)c2)cc1C#N [Compound 7, 5-(3-Chlorophenyl)-3-cyano-2-methylpyrrole]",Relaxation effect (%) 20 mM KCl-induced contraction,[3]; 3 μM,64%
same,Relaxation effect (%) 100 mM KCl-induced contraction,[3]; 3 μM,31%
"Cc1c(-c2cccc([N+](=O)[O-])c2)[nH]c(N)c1C#N [Compound 8, 2-Amino-3-cyano-4-methyl-5-(3-nitrophenyl)pyrrole]",Relaxation effect (%) 20 mM KCl-induced contraction,[3]; 3 μM,58%
same,Relaxation effect (%) 100 mM KCl-induced contraction,[3]; 3 μM,−2%
"Cc1[nH]c(-c2ccccc2)c(C)c1C#N [Compound 9, 3-Cyano-2,4-dimethyl-5-phenylpyrrole]",Relaxation effect (%) 20 mM KCl-induced contraction,[3]; 10 μM,79%
same,Relaxation effect (%) 100 mM KCl-induced contraction,[3]; 10 μM,39%
"CCOc1cccc(-c2cc(C#N)c(N3CCCC3)[nH]2)c1 [Compound 10, 3-Cyano-5-(3-ethoxyphenyl)-2-pyrrolidinopyrrole]",Relaxation effect (%) 20 mM KCl-induced contraction,[3]; 3 μM,37%
same,Relaxation effect (%) 100 mM KCl-induced contraction,[3]; 3 μM,−15%
"N#Cc1cc(-c2ccc3c(c2)OCO3)[nH]c1N1CCCC1 [Compound 11, 3-Cyano-5-(3,4-methylenedioxyphenyl)-2-pyrrolidinopyrrole]",Relaxation effect (%) 20 mM KCl-induced contraction,[3]; 10 μM,37%
same,Relaxation effect (%) 100 mM KCl-induced contraction,[3]; 10 μM,4%
